# Patent US8034561B2, “HIN-1, a tumor suppressor gene” (Dana-Farber Cancer Institute, Inc., priority 2001, dated 2011)
# B1: hHIN-1: hHIN-1 polypeptide (SEQ ID NO:1), 104 amino acids, expressed from the pCEP4-HIN-1 mammalian expression construct (protein, listed as Homo sapiens)
# chain: MKLAALLGLCVALSCSSARAFLVGSAKPVAQPVAALESAAEAGAGTLANPLGTLNPLKLLLSSLGIPVNHLIEGSQKCVAELGPQAVGAVKALKALLGALTVFG
# Tests used:
# [1] = test system: primary human bronchial epithelial cells; assay: Retinoic acid-induced mucinous differentiation, RT-PCR of hHIN-1, MUC2 and Tgase I mRNA; assay type: cell-based; conditions: 1 mM all-trans retinoic acid, 1 to 9 days
# Protocol: Primary cultures of human bronchial epithelial cells were purchased from Clonetics (Walkersville, Md.) and were cultured in the presence or absence of 1 mM all-trans retinoic acid essentially as previously described [Koo et al. (1999) Am. J. Respir. Cell Mol. Biol. 20:43-52].
# To test this hypothesis, the expression of hHIN-1 mRNA by RT-PCR during retinoic acid-induced mucinous differentiation of primary human bronchial epithelial cells was analyzed (FIG. 13). Primary human bronchial epithelial cells underwent squamous epithelial differentiation and expressed squamous cell markers such as transglutaminase I (Tgase I) in the absence of all-trans retinoic acid (FIG. 13). […] J. Respir. Cell Mol. Biol. 20:43-52]. […] Such expression kinetics are consistent with a role for HIN-1 as an inducer of this process.
# [2] = test system: hHIN-1 promoter region; assay: Extent of hHIN-1 promoter methylation by sequence analysis of bisulfite treated genomic DNA; assay type: cell-based, human; conditions: ZR-75-1 cells treated with 25 μM 5aza-C vs not treated, bisulfite sequencing
# Source text: hHIN-1 methylation, loss of heterozygocity and mutation analysis. Searching the draft of the human genome sequence with the hHIN-1 cDNA sequence identified a genomic clone (CTB-36B8) containing the entire hHIN-1 gene, the proximal promoter region of which contained an apparent CpG island. To determine the location of methylated cytosines, genomic DNA was extracted from the cells, bisulfite treated and purified as previously described [Herman et al. (1998) Proc. Natl. Acad. Sci. USA 95:6870-6875]. PCR amplification was performed using the following primers designed to amplify the coding strand (nucleotides −345 to +72) of bisulfite treated DNA: forward primer-5′-[…]-3′ (SEQ ID NO:9) and reverse primer-5′-[…]-3′ (SEQ ID NO:10). […] PCR amplifications were performed as described above; PCR fragments were analyzed on 3% agarose gels.
# (§1) To test for the consequence of promoter methylation on hHIN-1 expression, the effect of a DNA methyltransferase inhibitor (5-aza-2′-deoxycytidine; “5aza-C”) on hHIN-1 mRNA levels was analyzed. […] The expression of hHIN-1 mRNA was determined by RT-PCR analysis, while the extent of promoter methylation was evaluated by sequence analysis of bisulfite treated genomic DNA.
# [3] = test system: breast cancer cell lines with no detectable expression of hHIN-1; assay: Effect of DNA methyltransferase inhibitor on hHIN-1 mRNA levels (RT-PCR); assay type: cell-based, human; conditions: six breast cancer cell lines, 25 μM 5aza-C for three to ten days
# Source text: Cell lines and tissue. BT-20, BT-474, BT-549, Hs578T, MCF-7, MDA-MB-231, MDA-MB-468, MDA-MB-435S, SK-BR-3, T47D, UACC-812, UACC-893, and ZR-75-1 breast cancer cell lines were obtained from the American Type Culture Collection (ATCC; Manassas, Va.). SUM-44, SUM-52, SUM-102, SUM149, SUM-159, SUM-185, SUM-190, SUM-225, SUM-229, and SUM-1315 cell lines were a generous gift of Dr. Steve Ethier (University of Michigan Medical Center). The HCC1937 BRCA1 minus cell line was obtained from Dr. Gail Tomlinson (University of Texas Southwestern Medical Center). The 21MT1, 21MT2, 21NT, and 21PT cell lines were obtained from Dr. Arthur Pardee (Dana-Farber Cancer Institute). Cells were grown in media recommended by the ATCC or by the establishing investigators. However, 48 hours prior to RNA extraction, all cell lines were switched to DMEM/F12 medium supplemented with 5% FBS in order to minimize gene expression differences due to culture conditions. […]
# as §1
# [4] = test system: BT549 cells; assay: Colony assay after transfection with pCEP4 expression constructs; assay type: cell-based, human; conditions: stable transfectants selected with hygromycin for 2 weeks, crystal violet staining, compared to control pCEP4
# Source text: Generation of hHIN-1 mammalian expression constructs and recombinant adenoviruses. […] For the generation of a recombinant adenovirus the hHIN-1 cDNA was PCR amplified and subcloned into the Kpn I-Xho I site of the pAd-Track-CMV adenoviral vector followed by recombination and adenovirus generation using the Ad-Easy™(Quantum Biotechnologies, Montreal, Canada) system [He et al. (1998) Proc. Natl. Acad. Sci. USA 95:2509-2514].
# Colony assays, cell cycle analysis and western blot analysis. For colony assay experiments, cells in 100 mm plates were transfected with a mix of 42 μl of FuGene6 (Roche) and 21 μg of the indicated plasmid. 24 hours after transfection, 84% of the cells were plated into 2 T25 tissue culture flasks in medium without a selection drug. Twenty-four hours later the medium was replaced with selection medium containing hygromycin. Colonies were allowed to grow for 2 weeks after which they were visualized by crystal violet staining.
# In order to investigate the effect of constitutive hHIN-1 expression on mammary cell growth, a mammalian expression construct containing hHIN-1 polypeptide encoding cDNA (pCEP4-HIN-1) was transfected into various breast cancer cell lines. Stable transfectants were selected in the presence of hygromycin for 2 weeks.
molecule,measurement,setting,value
"CC1=C(/C=C/C(C)=C/C=C/C(C)=C/C(=O)O)C(C)(C)CCC1 [retinoic acid, all-trans retinoic acid]",expression of hHIN-1 mRNA,"[1]; RT-PCR, following retinoic acid treatment",correlated with the loss of a squamous marker (Tgase I) and preceded the induction of a marker for mucinous differentiation (MUC2)
same,differentiation phenotype (MUC2 expression),[1]; air-interface culture,differentiated into mucinous cells
"Nc1ncn([C@H]2C[C@H](O)[C@@H](CO)O2)c(=O)n1 [5aza-C, 5-aza-2′-deoxycytidine]",extent of hHIN-1 promoter methylation,[2],decrease in the extent of promoter methylation
same,expression of hHIN-1 mRNA,[3],re-expression of hHIN-1 mRNA in all six cell lines
B1,colony numbers / cell growth,[4],dramatic decrease in colony numbers
